The subject of the assay is muscle progenitors derived from DMD hiPSC. The assay is described as follows: Myotube assay: total myotube area per well (alpha-actinin staining). Conditions: Homo sapiens, Myotube, 72 h, DMD or WT cell source not given; for Emax: efficacy, MA = normalized Myotube Area, 3 days incubation; for EC50: myogenic activity, half-maximal generation of myotubes, 10 points dose-response 1.5 nM to 30 µM, 3 days. The format is cell-based, human. An outline of the steps: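 DMD hiPSC-derived muscle progenitors (NCRM-1 background) plated at 3500 cells/well in K5 medium with 5 µM Y-27632, then exposed to compound at 1.5 nM–30 µM for 3 days at 37°C. Cells fixed on day 7, alpha-actinin-immunostained and total myotube area per well quantified; duplicates averaged, EC50 and normalized myotube area derived.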

Where only a bound is given, the exact number is not on record here.

Drawing on patent publication EP4029501A1, “COMBINATION OF POLYAROMATIC UREA DERIVATIVES AND GLUCOCORTICOID OR HDAC INHIBITOR FOR THE TREATMENT OF DISEASES OR CONDITIONS ASSOCIATED WITH MUSCLE CELLS AND/OR SATELLITE CELLS” (Anagenesis Biotechnologies, priority 2021, dated 2022), this text covers Emax and EC50 for 16 compounds.

In general, Emax refers to the size of the effect at its maximum, as opposed to the concentration needed. By EC50 is commonly meant the concentration giving half of the maximal effect.

For `CC(C)(C)c1cc(NC(=O)Nc2ccc(Oc3ccnc4[nH]c(=O)cnc34)cc2Cl)n(-c2ccccc2)n1` [(ak), 1-(3-(tert-butyl)-1-phenyl-1H-pyrazol-5-yl)-3-(2-chloro-4-((3-oxo-3,4-dihydropyrido[2,3-b]pyrazin-8-yl)oxy)phenyl)urea], the Emax was at least 75% and the EC50 was at least 5000 nM.
For `CSc1cc(Oc2ccnc(NC(=O)OC(C)(C)C)c2)ccc1NC(=O)Nc1cc(C(C)(C)C)nn1-c1ccccc1` [(bi), tert-butyl (4-(4-(3-(3-(tert-butyl)-1-phenyl-1H-pyrazol-5-yl)ureido)-3-(methylthio)phenoxy)pyridin-2-yl)carbamate], in that order: at least 75% and under 500 nM.
The like results for `CC(C)(C)c1cnc(NC(=O)Nc2ccc(Oc3ccnc4[nH]c(=O)cnc34)c3ccccc23)s1` [(ba), 1-(5-(tert-butyl)thiazol-2-yl)-3-(4-((3-oxo-3,4-dihydropyrido[2,3-b]pyrazin-8-yl)oxy)naphthalen-1-yl)urea] were, in that order, at least 75% and under 500 nM.
The like results for `CSc1cc(Oc2ccnc3[nH]c(=O)cnc23)ccc1NC(=O)Nc1cc(C(C)(C)C)nn1-c1ccc2ncccc2c1` [(bm), 1-(3-(tert-butyl)-1-(quinolin-6-yl)-1 H-pyrazol-5-yl)-3-(2-(methylthio)-4-((3-oxo-3,4-dihydropyrido[2,3-b]pyrazin-8-yl)oxy)phenyl)urea] were, in that order, at least 75% and under 500 nM.
As to `CC(C)(C)c1cc(NC(=O)Nc2ccc(C(=O)c3ccncc3)cc2)n(-c2ccccc2)n1` [(cs), 1-(3-(tert-butyl)-1-phenyl-1 H-pyrazol-5-yl)-3-(4-isonicotinoylphenyl)urea], the Emax lay in the range of 25 to 50% and the EC50 was at least 5000 nM.
The like results for `CSc1cc(Oc2ccnc3[nH]c(=O)cnc23)ccc1NC(=O)Nc1nc(C(C)(C)C)cs1` [(ca), 1-(4-(tert-butyl)thiazol-2-yl)-3-(2-(methylthio)-4-((3-oxo-3,4-dihydropyrido[2,3-b]pyrazin-8-yl)oxy)phenyl)urea] were, in that order, at least 75% and at least 5000 nM.
In turn, `CC(C)Cc1cc(NC(=O)Nc2ccc(Oc3ccnc4[nH]c(=O)cnc34)cc2F)n(-c2ccccc2)n1` [(g), 1-(2-fluoro-4-((3-oxo-3,4-dihydropyrido[2,3-b]pyrazin-8-yl)oxy)phenyl)-3-(3-isobutyl-1-phenyl-1H-pyrazol-5-yl)urea] yielded an Emax of at least 75% and an EC50 of 500 to 1000 nM.
The like results for `CSc1cc(Oc2ccnc3[nH]c(=O)cnc23)ccc1NC(=O)Nc1cc(C(C)(C)C)nn1-c1ccc(C)c(Cl)c1` [(cl), 1-(3-(tert-butyl)-1-(3-chloro-4-methylphenyl)-1H-pyrazol-5-yl)-3-(2-(methylthio)-4-((3-oxo-3,4-dihydropyrido[2,3-b]pyrazin-8-yl)oxy)phenyl)urea] were, in that order, at least 75% and under 500 nM.
With `CSc1cc(Oc2ccnc3c2CCC(=O)N3)ccc1NC(=O)Nc1cc(C(C)(C)C)no1` [(cz), 1-(3-(tert-butyl)isoxazol-5-yl)-3-(2-(methylthio)-4-((7-oxo-5,6,7,8-tetrahydro-1,8-naphthyridin-4-yl)oxy)phenyl)urea], the Emax was at least 75% and the EC50 fell in the range of 500 to 1000 nM.
The like results for `CC(C)(C)c1cc(NC(=O)Nc2cc(Oc3ccnc4[nH]c(=O)cnc34)ccc2F)n(-c2ccccc2)n1` [(cq), 1-(3-(tert-butyl)-1-phenyl-1 H-pyrazol-5-yl)-3-(2-fluoro-5-((3-oxo-3,4-dihydropyrido[2,3-b]pyrazin-8-yl)oxy)phenyl)urea] were, in that order, at least 75% and 500 to 1000 nM.
For the compound `CSc1cc(Oc2ccnc3c2CCC(=O)N3)ccc1NC(=O)Nc1cncc(C(F)(F)F)c1` [(cg), 1-(2-(methylthio)-4-((7-oxo-5,6,7,8-tetrahydro-1,8-naphthyridin-4-yl)oxy)phenyl)-3-(5-(trifluoromethyl)pyridin-3-yl)urea], the Emax is at least 75% and the EC50 is at least 5000 nM.
For `CNC(=O)c1cc(Oc2ccc(NC(=O)Nc3cc(C(C)(C)C)nn3-c3ccc4ncccc4c3)c(SC)c2)ccn1` [(ag), 4-(4-(3-(3-(tert-butyl)-1-(quinolin-6-yl)-1H-pyrazol-5-yl)ureido)-3-(methylthio)phenoxy)-N-methylpicolinamide], in that order: at least 75% and 1000 to 5000 nM.
Regarding `CC(C)(C)c1nc(NC(=O)Nc2ccc(Oc3ccnc4[nH]c(=O)cnc34)cc2F)n(-c2ccccc2)n1` [(p), 1-(3-(tert-butyl)-1-phenyl-1 H-1,2,4-triazol-5-yl)-3-(2-fluoro-4-((3-oxo-3,4-dihydropyrido[2,3-b]pyrazin-8-yl)oxy)phenyl)urea], the Emax fell in the range of 25 to 50% and the EC50 is 500 to 1000 nM.
The like results for `CSc1cc(Oc2ccnc3[nH]c(=O)ccc23)ccc1NC(=O)Nc1cc(C(C)(C)C)nn1-c1ccccc1` [(do), 1-(3-(tert-butyl)-1-phenyl-1H-pyrazol-5-yl)-3-(2-(methylthio)-4-((7-oxo-7,8-dihydro-1,8-naphthyridin-4-yl)oxy)phenyl)urea] were, in that order, at least 75% and under 500 nM.
The like results for `CSc1cc(Oc2ccnc3c2CCC(=O)N3)ccc1NC(=O)Nc1ncc(C(C)(C)C)s1` [(cb), 1-(5-(tert-butyl)thiazol-2-yl)-3-(2-(methylthio)-4-((7-oxo-5,6,7,8-tetrahydro-1,8-naphthyridin-4-yl)oxy)phenyl)urea] were, in that order, at least 75% and under 500 nM.
For `CSc1cc(Oc2ccnc3[nH]c(=O)cnc23)ccc1NC(=O)Nc1cc(C(C)(C)C)nn1-c1ccc(F)c(Cl)c1` [(cm), 1-(3-(tert-butyl)-1-(3-chloro-4-fluorophenyl)-1H-pyrazol-5-yl)-3-(2-(methylthio)-4-((3-oxo-3,4-dihydropyrido[2,3-b]pyrazin-8-yl)oxy)phenyl)urea], in that order: at least 75% and 500 to 1000 nM.
